# Assays:
# [1] = system: mature postpartum sows; assay: Intravulvar injection at estrus detection in mature postpartum sows, AI breeding (Example 2); assay type: in vivo, swine; conditions: 50 mcg intravulvar at estrus detection
# Experimental: Sows were assigned randomly in blocks of two to either control or to be injected intravulvar with 50 mcg of deslorelin in SAIB at the time of estrus detection for sows first detected in estrus in the a.m. and 12 hours later for those first detected in estrus in the p.m. Treated animals were bred AI upon detected estrus and again 24 hours later if still in estrus. Controls received a saline injection on first detected estrus behavior estrus detection and were bred according to the farm's normal procedures.
# [2] = system: postpartum sows; assay: Single timed injection 96 hours post-weaning and single timed insemination without estrus detection in postpartum sows (Example 3); assay type: in vivo, swine; conditions: 50 mcg in SAIB 96 hours post-weaning, single timed insemination, no estrus detection
# Experimental: Approximately 170 postpartum sows were randomly divided into two equal groups comprised of controls and treated. Following weaning, the controls were detected for estrus and bred following the normal standard operating procedures for the farms on which they resided. The treated sows received a 50 mcg dose of deslorelin in SAIB at 96 hours post-weaning and were bred with a single insemination 28+/−2 hours later with no regard to estrus detection. The sows were examined for pregnancy by ultrasound at 21 days and slaughtered around 28 days post breeding. The entire reproductive tract was removed and corpora lutea and embryos were counted.
smiles,measurement,setting,value
"CCNC(=O)[C@@H]1CCCN1C(=O)[C@H](CCCN=C(N)N)NC(=O)[C@H](CC(C)C)NC(=O)[C@@H](Cc1c[nH]c2ccccc12)NC(=O)[C@H](Cc1ccc(O)cc1)NC(=O)[C@H](CO)NC(=O)[C@H](Cc1c[nH]c2ccccc12)NC(=O)[C@H](Cc1cnc[nH]1)NC(=O)[C@@H]1CCC(=O)N1 [Deslorelin, deslorelin]","Pregnancy rates, Control versus Treated",[1],no significant difference
same,Pregnancy Rate,[2],71%

# — patent US20160324916A1, “PROCESS FOR THE SYNCHRONIZATION OF OVULATION FOR TIMED BREEDING WITHOUT HEAT DETECTION” (priority 2003, published 2016)
